Assay results: PMC11106165, “Repurposing the KCa3.1 Blocker Senicapoc for Ischemic Stroke” (Translational Stroke Research, 2023)

What was measured:
[1] = tested on: male C57BL/6 J mice, tMCAO; assay: Immunohistochemistry (Iba-1, CD3, NeuN) of infarcted hemisphere on day 8 after MCAO; type: in vivo, mouse
Excerpt: After the MRI on day 8, animals were euthanized with an overdose of isoflurane, and brains were quickly removed and sectioned into four 2-mm-thick coronal slices starting from the frontal pole. […] Cell nuclei were visualized with 4′,6-diamidino-2-phenylindole (DAPI).
The images were then opened on the BZ-X Analyzer, the left (infarcted) hemisphere for each section extracted and analyzed with a macro within the “Hybrid Cell Count” feature of the BZ-X Analyzer program. Images were thresholded to exclusively the area of stained cells without considering artifacts, ventricles, or folds. Each macro-generated image was verified by careful visual inspection. Results for Iba1 and CD3 are reported as percentage of section area (µm^2) that was positively stained, divided by total section area (µm^2) in the infarcted left hemisphere. NeuN is reported as the inverse of the percentage of section area (µm^2) that was positively stained, divided by total section area (µm^2) in the infarcted left hemisphere in order to quantify the Neu negative area.

human tPA = target: T1, human tPA (Homo sapiens, UniProt P00750); assay: Chromogenic tPA activity assay; type: biochemical; settings: 0.5 μM and 5 μM, 30-min assay, PBS with 10% human serum
T1 construct: purchased Abcam ab108905
T1 sequence (P00750 36-562): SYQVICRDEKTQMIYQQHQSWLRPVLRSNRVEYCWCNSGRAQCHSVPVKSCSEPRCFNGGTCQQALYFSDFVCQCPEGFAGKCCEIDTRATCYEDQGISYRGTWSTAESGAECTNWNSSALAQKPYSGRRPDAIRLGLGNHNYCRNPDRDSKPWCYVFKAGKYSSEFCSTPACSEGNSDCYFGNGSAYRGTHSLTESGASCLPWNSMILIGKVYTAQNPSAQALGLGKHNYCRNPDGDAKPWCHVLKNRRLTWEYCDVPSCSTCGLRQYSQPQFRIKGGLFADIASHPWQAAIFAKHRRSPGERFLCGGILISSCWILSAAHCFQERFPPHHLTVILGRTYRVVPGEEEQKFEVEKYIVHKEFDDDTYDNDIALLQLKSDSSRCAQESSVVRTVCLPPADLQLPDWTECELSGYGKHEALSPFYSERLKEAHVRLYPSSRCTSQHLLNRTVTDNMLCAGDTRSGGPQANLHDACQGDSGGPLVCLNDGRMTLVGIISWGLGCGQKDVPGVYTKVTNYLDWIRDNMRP
Excerpt: The commercially available tPA Activity Assay Kit (Abcam, ab108905) was used to assess whether senicapoc and TRAM-34 affect the ability of human tPA to cleave its substrate plasminogen similar to protocols published by Lapchak and Boitano [38] and Lapchak et al.. Reactions were run in optically clear flat-bottom 96-well plates (Corning, Catalog #3904). Human plasminogen activator inhibitor-1 (PAI-1; Sigma-Aldrich CC4075) was used as a positive control. Human plasminogen, the chromogenic plasmin substrate, and human tPA were included in the tPA Activity Assay Kit. […] The reactions were pre-incubated at 37 °C for 5 min prior to the addition of the chromogenic plasmin substrate and subsequently placed in a heated SpectraMax M5 spectrophotometer. Absorbances at 405 nm were measured every 30 s for 30 min.

[2] = tested on: male C57BL/6 J mice, tMCAO; assay: RT-qPCR of inflammatory markers in brain on day 8 after tMCAO; type: in vivo, mouse
Protocol: (§1) After MRIs were completed, mice were euthanized with an overdose of isoflurane, brains harvested, split into ipsilateral and contralateral hemispheres, and immediately frozen with liquid N2. Brain hemispheres were homogenized in mortar and pestles with liquid N2. RNA was extracted from brain homogenates (Fig. 7b) or MMC cell pellets (Fig. 2) with Trizol (ThermoFisher, Catalog # 15,596,026) according to the manufacturer’s protocol. RNA purity and concentration were assessed using a Nanodrop Spectrophotometer ND-1000 (Marshall Scientific). The 260 nm/280 nm absorption ratios for the samples ranged from 1.95 to 2.00. Subsequently, a cDNA library was made with a High-Capacity cDNA Reverse Transcription Kit (ThermoFisher Scientific, Catalog# 4,374,967), with 2 µg of total RNA per […]. Reactions were carried out in a PTC-200 Peltier Thermal Cycler; the conditions were as follows: 25 °C for 10 min, 37 °C for 120 min, 85 °C for 5 min, with final storage at 4 °C. RT-qPCR reactions were conducted in an Applied Biosystems Viia7 Real-Time PCR System using Maxima SYBR Green/ROX qPCR Master Mix (ThermoFisher Scientific, Catalog #K022) and with the recommended three-step cycling protocol. All CT values were normalized to the geometric mean of three housekeeping genes, β-actin, GAPDH, and 18S, as recommended by Vandesompele et al.. Fold change was calculated by the ∆∆Ct method. Primer sequences are provided in Supplementary Table 1. For brain samples, relative mRNA levels were generated by normalizing to sham.
Statistical analysis of infarct percentage comparing two groups was performed using unpaired t-test. Statistical analysis of three groups (e.g., vehicle vs senicapoc 10 mg/kg vs senicapoc 40 mg/kg) was performed with analysis of variance (ANOVA) with a post hoc pair-wise comparison using Tukey’s test (Origin software), as previously described. All data are shown as box-and-whisker plots with an overlay of the individual animal data. The boxes show mean ± S.E.M, and the whiskers show confidence intervals. The categorical neurological scoring data in Fig. 3 b is shown as a scatter plot without means or S.E.M and was analyzed with the Mann–Whitney U test as per recommendations for optimal presentation and analysis of non-parametric data in pre-clinical stroke studies by Dirnagl. For the IHC data in Fig. 5 comparing two groups, unpaired t-tests were performed. The brain qPCR data in Fig. 7 was analyzed in Prism using one-way ANOVA followed by Dunnett’s test to correct for multiple comparisons. For all statistical testing, P < 0.05 was used as the level of significance. * = P < 0.05, ** = P < 0.01, *** = P < 0.001.

[3] = humans; cited from earlier work
[4] = tested on: MMC (mouse microglial cell line); assay: RT-qPCR of inflammatory markers in LPS-stimulated MMC; type: cell-based; settings: 24 h 100 ng/mL LPS
Protocol: An immortalized mouse microglial cell (MMC) line was kindly provided by Dr. D.T. Golenbock (University of Massachusetts Medical School, Worcester, MA) and previously used by our laboratory. Cells were cultured in Gibco’s Dulbecco’s modified Eagle’s Medium (DMEM, high glucose, L-glutamine, high pyruvate) with 5% CO2 at 37° with 1% penicillin/streptomycin and 10% fetal bovine serum. For the qPCR experiments, cells were seeded at 200,000 cells/mL; 24 h later, medium was changed to DMEM with 2% FBS and cells were stimulated with 100 ng/mL lipopolysaccharide (LPS), in the presence or absence of senicapoc, or a 0.2% DMSO control. Cells were pre-incubated with senicapoc for 1 h prior to stimulation and harvested 24 h after stimulation.
as §1, with “All CT values were normalized to the geometric mean of three housekeeping genes, β-actin, GAPDH, and 18S, as recommended by Vandesompele et al..” left out, “Primer sequences are provided in Supplementary Table 1. For brain samples, relative mRNA levels were generated by normalizing to sham.” left out

[5] = fold-change relative to sham, day 8, adjusted P 0.01
[6] = fold-change relative to sham, day 8, adjusted P <0.001

NC(=O)C(c1ccccc1)(c1ccc(F)cc1)c1ccc(F)cc1 [senicapoc]
neuronal death (NeuN-negative area) [1]: decreases neuronal death | T cell infiltration (CD3 staining) ([1]; 40 mg/kg): significantly reduced | microglia/macrophage activation and infiltration (Iba1 staining) ([1]; 40 mg/kg): significantly reduced | effect on tPA activity (absorbance at 405 nm) (human tPA): no effect | expression of IL-1β, TNF-α, IL-6, CD68, NLRP3, IL-2, IFN-γ, IL-4 and IL-10 in the infarcted hemisphere ([2]; 40 mg/kg started 3 h, day 8, vs vehicle): significantly reduced | il1b mRNA, Mean Diff. vehicle-treated ipsi vs senicapoc-treated ipsi ([2]; fold-change relative to sham, day 8, 40 mg/kg started 3 h, adjusted P <0.001): 3.115 | tgfb mRNA, Mean Diff. vehicle-treated ipsi vs senicapoc-treated ipsi ([2]; fold-change relative to sham, day 8, adjusted P 0.003): 2.876 | il4 mRNA, Mean Diff. vehicle-treated ipsi vs senicapoc-treated ipsi [2, 5]: 2.833 | nlrp3 mRNA, Mean Diff. vehicle-treated ipsi vs senicapoc-treated ipsi [2, 5]: 4.839 | inos mRNA, Mean Diff. vehicle-treated ipsi vs senicapoc-treated ipsi ([2]; fold-change relative to sham, day 8, adjusted P 0.48): 6.938 | bdnf mRNA, Mean Diff. vehicle-treated ipsi vs senicapoc-treated ipsi ([2]; fold-change relative to sham, day 8, adjusted P 0.79): -11.09 | il17a mRNA, Mean Diff. vehicle-treated ipsi vs senicapoc-treated ipsi ([2]; fold-change relative to sham, day 8, adjusted P 0.98): 0.3131 | cd68 mRNA, Mean Diff. vehicle-treated ipsi vs senicapoc-treated ipsi [2, 6]: 12.76 | ifng mRNA, Mean Diff. vehicle-treated ipsi vs senicapoc-treated ipsi [2, 6]: 8.327 | il2 mRNA, Mean Diff. vehicle-treated ipsi vs senicapoc-treated ipsi [2, 6]: 10.6 | il6 mRNA, Mean Diff. vehicle-treated ipsi vs senicapoc-treated ipsi [2, 6]: 7.107 | il10 mRNA, Mean Diff. vehicle-treated ipsi vs senicapoc-treated ipsi [2, 6]: 13.82 | tnfa mRNA, Mean Diff. vehicle-treated ipsi vs senicapoc-treated ipsi [2, 6]: 6.221 | half-life [3]: 12 days | induction of inflammasome component NLRP3 [4]: prevented induction | mRNA levels of iNOS and COX-2 [4]: significantly reduced | mRNA expression of IL-1β, TNF-α, IL-6 and IL-10 ([4]; 1 h pre-incubation): concentration-dependently reduced
